Target: T1, GBA2 (Mus musculus, UniProt Q69ZF3)
T1 construct: from tissue; host or cells: mouse brain homogenate
T1 sequence (Q69ZF3 1-918): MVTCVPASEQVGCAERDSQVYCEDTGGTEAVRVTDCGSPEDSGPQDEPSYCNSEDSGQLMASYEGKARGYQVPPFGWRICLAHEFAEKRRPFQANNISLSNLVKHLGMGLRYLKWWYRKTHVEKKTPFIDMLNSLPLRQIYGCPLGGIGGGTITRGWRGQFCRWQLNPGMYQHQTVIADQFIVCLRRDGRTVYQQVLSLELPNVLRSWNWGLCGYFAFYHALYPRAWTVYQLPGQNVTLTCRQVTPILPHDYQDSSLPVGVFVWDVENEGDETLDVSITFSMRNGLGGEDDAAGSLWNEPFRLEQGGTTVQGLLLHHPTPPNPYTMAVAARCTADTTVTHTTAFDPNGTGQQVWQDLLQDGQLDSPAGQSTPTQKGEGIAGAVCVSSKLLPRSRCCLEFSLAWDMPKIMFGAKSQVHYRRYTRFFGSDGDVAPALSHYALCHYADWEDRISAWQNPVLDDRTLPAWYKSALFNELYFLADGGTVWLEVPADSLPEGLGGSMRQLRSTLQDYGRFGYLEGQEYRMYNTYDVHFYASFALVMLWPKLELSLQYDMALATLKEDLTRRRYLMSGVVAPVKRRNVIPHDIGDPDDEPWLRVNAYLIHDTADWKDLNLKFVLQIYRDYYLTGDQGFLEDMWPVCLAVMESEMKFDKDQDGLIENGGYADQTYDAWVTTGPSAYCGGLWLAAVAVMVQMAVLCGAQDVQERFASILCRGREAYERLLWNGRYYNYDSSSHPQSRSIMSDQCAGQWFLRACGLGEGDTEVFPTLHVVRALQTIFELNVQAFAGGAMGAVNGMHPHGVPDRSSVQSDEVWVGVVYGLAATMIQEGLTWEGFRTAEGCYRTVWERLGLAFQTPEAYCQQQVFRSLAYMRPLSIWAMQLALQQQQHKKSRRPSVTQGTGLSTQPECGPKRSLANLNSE
Test: Labelling of GBA2 orthologue in mice brain homogenates
Assay type: biochemical
Conditions: 1 h at 37 °C; ABP 3 and 7 at 1 μM, ABP 4 and 5 at 2.5 μM
Protocol: GBA2 orthologs are highly conserved among different species. […] The labelling capability of β-D-Araf aziridine ABPs toward GBA2 orthologs in these species was therefore evaluated. Homogenates of zebrafish larvae or mice brain homogenates were incubated with β-D-Araf ABPs 3–5 or broad-spectrum ABP 7 (Fig. 4).
Fig. 4 Fluorescent gel images of selective labelling of GBA2 orthologues by β-D-Araf aziridine ABPs in different species. Cyclophellitol-aziridine ABP 7 (1 μM) and β-D-Araf ABPs (ABP 3 at 1 μM and ABP 4 and 5 at 2.5 μM) were incubated with homogenates of zebrafish (15 μg total protein) and mice brain (15 μg total protein) for 1 h at 37 °C. […]
were transferred to nitrocellulose membrane for western blotting. Ponceau S staining was used to show total protein loading. […]
2.12 Reactivity of β-D-Araf aziridines towards GBA2 orthologue in other species β-D-Araf aziridine ABP 3-5 or ABP 7 was incubated with homogenates of zebrafish (Danio rerio) larvae or mice brain for 1 h at 37 °C. […] The zebrafish homogenates were passed through a desalting column (in the same way as described for the irreversibility evaluation above) to remove interference from biological pigments when scanning at λEX 473 nm and λEM ≥ 510 nm for BODIPY green fluorescence. […]

In the case of `CN1/C(=C/C=C/C=C/C2=[N+](CCCCCC(=O)NCc3cn(CCCCCCCCN4[C@@H]5[C@H](CO)[C@@H](O)[C@H](O)[C@@H](O)[C@@H]54)nn3)c3ccccc3C2(C)C)C(C)(C)c2ccccc21` (stereo partly shown) [ABP 7], the “Labelling selectivity in mice brain homogenates” value is reported as “show cross-reactivity towards GBA1”.

Reference: paper PMC11375437, “Selective labelling of GBA2 in cells with fluorescent β-D-arabinofuranosyl cyclitol aziridines” (Chemical Science, 2024)
